From patent US20100273814A1, “((PHENYL)IMIDAZOLYL)METHYLHETEROARYL COMPOUNDS” (priority 2007, published 2010)
Where two headings read alike, the source gives them in different places.

Columns and labels:
Format in all cases: cell-based
alpha2A receptor = molecular target: T1, alpha2A receptor (Homo sapiens, UniProt P08913); experiment: Receptor Selection and Amplification Technology (RSAT) assay, alpha2A; conditions: for Alpha 2A intrinsic activity (efficacy): ratio of maximal effect to that of standard full agonist brimonidine (UK14304), value in brackets
T1 construct: expressed in transfected cells; host or cells: NIH-3T3 cells
T1 sequence (P08913 1-465): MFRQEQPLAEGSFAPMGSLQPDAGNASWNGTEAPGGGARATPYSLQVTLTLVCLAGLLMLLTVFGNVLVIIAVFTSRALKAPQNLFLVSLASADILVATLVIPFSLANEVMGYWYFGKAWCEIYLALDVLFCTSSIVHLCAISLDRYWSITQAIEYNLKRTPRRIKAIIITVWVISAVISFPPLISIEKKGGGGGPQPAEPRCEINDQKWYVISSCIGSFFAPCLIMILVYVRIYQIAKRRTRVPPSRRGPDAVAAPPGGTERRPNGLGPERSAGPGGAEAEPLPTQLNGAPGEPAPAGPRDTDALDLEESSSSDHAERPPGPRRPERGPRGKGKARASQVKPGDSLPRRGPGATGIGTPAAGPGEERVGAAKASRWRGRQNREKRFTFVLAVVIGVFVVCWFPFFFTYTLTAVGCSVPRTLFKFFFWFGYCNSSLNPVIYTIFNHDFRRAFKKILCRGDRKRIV
Method: (§1) Receptor Selection and Amplification Technology (RSAT) Assay
(§2) The RSAT assay measures a receptor-mediated loss of contact inhibition that results in selective proliferation of receptor-containing cells in a mixed population of confluent cells. The increase in cell number is assessed with an appropriate transfected marker gene such as β-galactosidase, the activity of which can be easily measured in a 96-well format. Receptors that activate the G protein, Gq, elicit this response. Alpha2 receptors, which normally couple to Gi, activate the RSAT response when coexpressed with a hybrid Gq protein that has a Gi receptor recognition domain, called Gq/i5.
(§3) NIH-3T3 cells are plated at a density of 2×10^6 cells in 15 cm dishes and maintained in Dulbecco's modified Eagle's medium supplemented with 10% calf serum. One day later, cells are cotransfected by calcium phosphate precipitation with mammalian expression plasmids encoding p-SV-β-galactosidase (5-10 μg), receptor (1-2 μg) and G protein (1-2 μg). 40 μg salmon sperm DNA may also be included in the transfection mixture. Fresh media is added on the following day and 1-2 days later, cells are harvested and frozen in 50 assay aliquots. Cells are thawed and […] added to 100 aliquots of various concentrations of drugs in triplicate in 96-well dishes. Incubations continue 72-96 hr at 37° C. After washing with phosphate-buffered saline, β-galactosidase enzyme activity is determined by adding 200 μl of the chromogenic substrate (consisting of 3.5 mM o-nitrophenyl-β-D-galactopyranoside and 0.5% nonidet P-40 in phosphate buffered saline), incubating overnight at 30° C. and measuring optical density at 420 nm. The absorbance is a measure of enzyme activity, which depends on cell number and reflects a receptor-mediated cell proliferation. The efficacy or intrinsic activity is calculated as a ratio of the maximal effect of the drug to the maximal effect of a standard full agonist for each receptor subtype. Brimonidine, also called UK14304, the chemical structure of which is shown below, is used as the standard agonist for the alpha2A, alpha2B and alpha2C receptors. The EC50 is the concentration at which the drug effect is half of its maximal effect.
(§4) EC50 values are nanomolar. ND stands for “not determinable” at concentrations less than 10 micromolar. IA stands for “intrinsic activity.”

alpha2B receptor = molecular target: T2, alpha2B receptor (Homo sapiens, UniProt P18089); experiment: Receptor Selection and Amplification Technology (RSAT) assay, alpha2B; conditions: for Alpha 2B intrinsic activity (efficacy): ratio of maximal effect to that of standard full agonist brimonidine (UK14304), value in brackets
T2 construct: expressed in transfected cells; host or cells: NIH-3T3 cells
T2 sequence (P18089 1-450): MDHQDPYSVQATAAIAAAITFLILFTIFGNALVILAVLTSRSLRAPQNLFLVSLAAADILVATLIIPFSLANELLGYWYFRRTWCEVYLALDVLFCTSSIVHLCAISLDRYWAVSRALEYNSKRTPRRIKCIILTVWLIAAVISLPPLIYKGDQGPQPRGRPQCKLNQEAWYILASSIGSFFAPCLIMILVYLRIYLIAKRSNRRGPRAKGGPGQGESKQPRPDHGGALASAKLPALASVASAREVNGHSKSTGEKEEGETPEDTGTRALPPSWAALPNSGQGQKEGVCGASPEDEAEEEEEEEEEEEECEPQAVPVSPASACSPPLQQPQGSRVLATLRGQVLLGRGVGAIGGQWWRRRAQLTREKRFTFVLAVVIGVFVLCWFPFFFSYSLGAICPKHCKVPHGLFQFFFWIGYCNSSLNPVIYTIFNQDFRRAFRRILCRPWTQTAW
Method: as §1, §2, §3, §4

alpha2C receptor = molecular target: T3, alpha2C receptor (Homo sapiens, UniProt P18825); experiment: Receptor Selection and Amplification Technology (RSAT) assay, alpha2C; conditions: for Alpha 2C intrinsic activity (efficacy): ratio of maximal effect to that of standard full agonist brimonidine (UK14304), value in brackets
T3 construct: expressed in transfected cells; host or cells: NIH-3T3 cells
T3 sequence (P18825 1-462): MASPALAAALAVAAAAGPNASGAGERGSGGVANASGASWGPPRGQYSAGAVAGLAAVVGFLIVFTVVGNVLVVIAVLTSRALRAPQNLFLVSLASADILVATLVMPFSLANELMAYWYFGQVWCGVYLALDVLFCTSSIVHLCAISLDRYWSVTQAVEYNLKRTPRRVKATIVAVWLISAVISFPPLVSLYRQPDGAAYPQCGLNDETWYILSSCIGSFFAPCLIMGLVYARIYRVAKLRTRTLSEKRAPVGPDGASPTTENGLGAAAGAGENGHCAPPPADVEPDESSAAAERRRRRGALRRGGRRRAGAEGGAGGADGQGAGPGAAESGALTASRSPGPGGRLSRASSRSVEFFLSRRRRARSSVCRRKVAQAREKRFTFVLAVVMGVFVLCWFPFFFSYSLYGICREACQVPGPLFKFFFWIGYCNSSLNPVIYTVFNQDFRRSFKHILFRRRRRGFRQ
Method: as §1, §2, §3, §4

[1] = RSAT, transfected NIH-3T3 cells, value outside brackets, read-out: Alpha 2A EC50 (potency)
[2] = RSAT, transfected NIH-3T3 cells, value outside brackets, read-out: Alpha 2B EC50 (potency)
[3] = RSAT, transfected NIH-3T3 cells, value outside brackets, read-out: Alpha 2C EC50 (potency)

SMILES	EC50 (alpha2A receptor; [1]) [nM]	Alpha 2A intrinsic activity (efficacy) (alpha2A receptor; RSAT)	EC50 (alpha2B receptor; [2]) [nM]	Alpha 2B intrinsic activity (efficacy) (alpha2B receptor; RSAT)	EC50 (alpha2C receptor; [3]) [nM]	Alpha 2C intrinsic activity (efficacy) (alpha2C receptor; RSAT)	EC50 (alpha2B receptor) [nM]	EC50 (alpha2A receptor) [nM]	EC50 (alpha2C receptor) [nM]
c1ccc(C(c2cccnc2)c2c[nH]cn2)cc1 (centres unmarked) [3-((phenyl)(1H-imidazol-5-yl)methyl)pyridine]	> 10000	0.11	190	0.72	> 10000	0.16	–	–	–
Fc1cccc(C(c2cccnc2)c2c[nH]cn2)c1 (centres unmarked) [3-((3-fluorophenyl)(1H-imidazol-5-yl)methyl)pyridine]	> 10000	0.05	222	1.01	3640	0.17	–	–	–
Fc1c(Cl)cccc1C(c1c[nH]cn1)c1cccs1 (centres unmarked)	–	0.21	–	0.93	–	0.28	46	–	–
c1ccc(C(c2ccncc2)c2c[nH]cn2)cc1 (centres unmarked) [4-((phenyl)(1H-imidazol-5-yl)methyl)pyridine]	> 10000	0.10	309	0.69	> 10000	0.14	–	–	–
CC(C)c1ccc(C(c2c[nH]cn2)c2cccc(F)c2Cl)s1 (centres unmarked)	–	0.06	75	0.40	–	0.23	–	–	–
Fc1cccc(C(c2cccnc2)c2c[nH]cn2)c1F (centres unmarked) [3-((2,3-difluorophenyl)(1H-imidazol-5-yl)methyl)pyridine]	> 10000	0.05	68	0.93	656	0.85	–	–	–
Clc1cccc(C(c2ccccn2)c2c[nH]cn2)c1Cl (centres unmarked) [2-((2,3-dichlorophenyl)(1H-imidazol-5-yl)methyl)pyridine]	–	0.21	–	.85	–	0.39	8.7	> 10000	784
Clc1cccc(C(c2ccncc2)c2c[nH]cn2)c1Cl (centres unmarked) [4-((2,3-dichlorophenyl)(1H-imidazol-5-yl)methyl)pyridine]	> 10000	0.18	3.2	1.31	97	0.72	–	–	–
Clc1cccc(C(c2cccnc2)c2c[nH]cn2)c1Cl (centres unmarked)	605	0.37	1.62	1.15	112	0.87	–	–	–
Fc1cccc(C(c2ccncc2)c2c[nH]cn2)c1F (centres unmarked) [4-((2,3-difluorophenyl)(1H-imidazol-5-yl)methyl)pyridine]	> 10000	0.01	837	0.70	2490	1.02	–	–	–
Fc1c(C(c2ccccn2)c2c[nH]cn2)cccc1C(F)(F)F (centres unmarked) [2-((2-fluoro-3-(trifluoromethyl)phenyl)(1H-imidazol-5-yl)methyl)pyridine]	> 10000	0.08	39	1.1	507	1.09	–	–	–
Fc1ccccc1C(c1ccccn1)c1c[nH]cn1 (centres unmarked) [2-((2-fluorophenyl)(1H-imidazol-5-yl)methyl)pyridine]	> 10000	0.04	993	0.56	2080	0.43	–	–	–
Fc1ccccc1C(c1cccnc1)c1c[nH]cn1 (centres unmarked) [3-((2-fluorophenyl)(1H-imidazol-5-yl)methyl)pyridine]	–	0.7	–	0.60	–	0.55	251	> 10000	2480
Cc1c(F)cccc1C(c1ccncc1)c1c[nH]cn1 (centres unmarked) [4-((3-fluoro-2-methylphenyl)(1H-imidazol-5-yl)methyl)pyridine]	> 10000	0.03	72	1.17	> 10000	0.27	–	–	–
Cc1ccccc1C(c1ccccn1)c1c[nH]cn1 (centres unmarked) [2-((2-methylphenyl)(1H-imidazol-5-yl)methyl)pyridine]	> 10000	0.03	177	0.92	213	0.57	–	–	–
Fc1cccc(C(c2ccncc2)c2c[nH]cn2)c1 (centres unmarked) [4-((3-fluorophenyl)(1H-imidazol-5-yl)methyl)pyridine]	> 10000	0.04	562	0.93	> 10000	0.23	–	–	–
